Assay results: US11639372B1, “Zinc-charged peptides for the treatment of cancer and alzheimer's disease” (priority 2021, dated 2023)
Values joined by “and” are separate entries in the source; they are usually repeats but may differ in a detail not shown here. Equal entries are not always repeated. Ends that are not written are not given here.

Tests used:
[1] = system: cancer-associated fibroblasts; experiment: cellular ATP level in cancer-associated fibroblasts; format: cell-based; conditions: 2 μM, 2 hours
Procedure: FIGS. 12a-b display a cell culture study showing the ATP levels and hexokinase II activities of CAFs that were cultured with 2 μM zinc-charged 4H3 for 2 hours. […] These findings confirmed that the zinc-charged peptides caused ATP depletion and hexokinase II inhibition in CAFs.

Tau protein = experiment: brain Tau protein in mice (ELISA); format: in vivo; conditions: for decrease in brain Tau protein: 1 mg/mouse, 5 days, oral
Procedure: (§1) FIGS. 11a-d provide the graphical representations of these observations. FIG. 11a depicts the level of brain ATP in mice that were orally administered zinc-charged 4H3 compared to mice who were given the control. […] FIG. 11b depicts the level of brain Tau protein ATP in mice that were orally administered zinc-charged 4H3 compared to mice who were given the control. In this test, a 2.7 μg protein load was utilized. […] FIG. 11c depicts a retest of FIG. 11b, but with a lower protein load utilized instead. […] Lastly, FIG. 11d depicts the brain P38 MAPK levels in mice that were orally administered zinc-charged 4H3 compared to mice who were given the control. In this test, the mice given the zinc-charged 4H3 saw their brain P38 MAPK levels decrease by 61%.

HT-29 cancer cells = experiment: tissue distribution: mouse tissue homogenates incubated with HT-29 cells, percentage of cells under apoptosis; format: cell-based; conditions: mice, five days administration
Procedure: These observations were confirmed by studying the tissue distribution of the zinc-charged 4H3 in mice after five days administration, as shown in FIG. 3. For these tests, tissue homogenates were taken from the mice five days after receiving the zinc-charged 4H3, then prepared and incubated with HT-29 cancer cells for various times, followed by the determination of the percentage of cell under apoptosis.

P38 MAPK = experiment: brain P38 MAPK level in mice; format: in vivo; conditions: 1 mg/day for 5 days, oral
Procedure: as §1

respiratory chain I [2] = experiment: respiratory chain I activity, mitochondria of normal colon cells; format: biochemical; conditions: normal CCD8Co colon cells; 5 μM, 2 hours (FIG. 15c)
Procedure: (§2) For the testing depicted in FIGS. 15a-15d, […] zinc-charged 4H3 was utilized and compared to a control. In this test, mitochondria was isolated from the cell line, and complex I and III activity was tested using a Cayman Mitocheck Complex I & III Activity Kit. […] However, the zinc-charged 4H3 increased the activity of respiratory chain I by 21% but inhibited respiratory chain III by 42% in normal CCD8Co colon cells.

respiratory chain III [3] = experiment: respiratory chain III activity, mitochondria of normal colon cells; format: biochemical; conditions: normal CCD8Co colon cells; 5 μM, 2 hours (FIG. 15d)
Procedure: as §2

[4] = brain ATP level in mice fed zinc-charged 4H3; format: in vivo; conditions: 1 mg/day for 5 days, oral
Procedure: as §1

glutaminase = glutaminase activity in HT-29 cell lysate; format: cell-based; conditions: HT-29, 2 μM, 30-90 minutes
Source text: FIGS. 16a-b depict the zinc-charged peptides inhibiting glutaminase activity in HT-29 cancer cells. Glutaminase is another important enzyme responsible for the synthesis of ATP in mitochondria. […] The inhibition of the enzyme glutaminase, along with the inhibition of respiratory chains in cancer cells explain the depletion of ATP in cancer cells shown in FIG. 5.

[5] = pharmacokinetic study, serum half-life; format: in vivo
[6] = system: human pancreatic cancer Bx-PC3-G mouse orthotopic model; experiment: orthotopic pancreatic cancer model in mice; format: in vivo; conditions: oral, 21-day period
Procedure: In this test, two doses of zinc-charged 4H3 and a control of only the vehicle were orally administered to mice with orthotopic pancreatic cancer. The zinc-charged 4H3 was administered in a “low dose” of 0.5 mg per mouse and a “high dose” of 1.0 mg per mouse.

HT-29 colon cancer cells = experiment: apoptotic effect on HT-29 cells of saliva from a human volunteer after oral zinc-charged 4H3; format: cell-based; conditions: for time at which saliva-induced apoptotic activity peaked: human volunteer
Procedure: It has been shown that the zinc-charged peptide induces apoptosis in various cancer lines. FIGS. 1a, 1b, and 2 show this effect of the zinc-charged peptide on the HT-29 cancer cell line after the zinc-charged peptide was given to a human volunteer. Specifically, 200 mg of zinc-charged 4H3 was orally given to the volunteer in a liquid form. The peptide mixture was an undialyzed sample, such that the zinc-charged 4H3 in the liquid had not yet been separated from the saturated EDTA and free zinc.
Saliva samples were then collected from the volunteer at 4-, 6-, 8-, 9-, 12- and 17-hours post-ingestion of the zinc-charged 4H3. The saliva samples were then incubated with HT-29 cancer cells for either 14-hours or 24-hours to observe the apoptotic effect. FIG. 1a depicts the percentage of cell shrinkage and death of HT-29 colon cancer cells after incubation for 14- and 24-hours with the human saliva samples containing the zinc-charged 4H3 noted above. As shown, the saliva sample collected 4-hours post-ingestion has little effect on the HT-29 cancer cells. […] The saliva-induced apoptotic activity thus peaked at 9-hours post-ingestion.
FIGS. 1B-f depicts microscopic slides of the HT-29 cancer cells after being incubated for […] with specific saliva samples. […] FIG. 1d depicts the saliva sample taken from the volunteer 4 hours after the zinc-charged peptide was ingested. FIGS. 1e and 1f depict saliva samples collected from the volunteer after 10-hour ingestion.
FIG. 2 depicts a dry, solid sample of the zinc-charged 4H3 that was administered to a human volunteer. Specifically, 150 mg of zinc-charged 4H3 was orally given to the volunteer in a dry solid form. This sample was dialyzed, dried down, and had arginine added as an absorption enhancer such that the dried powder included only the zinc-charged 4H3 and arginine. As with the test shown in FIG. 1a, the saliva samples were taken from the human subject 0-, 3-, 6-, 9-, 12-, 15-, 18-, 21-, and 24-hours post-ingestion. The saliva samples were then incubated with HT-29 cancer cells, and their apoptotic activity recorded after 6-, 10-, 14-, and 24-hours.

respiratory chain I [7] = experiment: respiratory chain I activity, mitochondria isolated from HT-29 cells; format: biochemical; conditions: HT-29 colon cancer cells; 5 μM, 2 hours (FIG. 15a)
Procedure: as §2

respiratory chain III [8] = experiment: respiratory chain III activity, mitochondria isolated from HT-29 cells; format: biochemical; conditions: HT-29 colon cancer cells; 5 μM, 2 hours (FIG. 15b)
Procedure: as §2

Sequence: EYGLFQISNKK [zinc-charged 4H3]
- reduction of ATP levels in CAFs [1]: 95.6%
- reduction of Tau protein in the brain (Tau protein; 1 mg/day for 5 days, both protein loads): 22.4-27.5%
- decrease in brain Tau protein (Tau protein; 0.55 μg protein load): 22.4%
- decrease in brain Tau protein (Tau protein; 2.7 μg protein load): 27.5%
- apoptosis activity of tissue homogenate (HT-29 cancer cells; colon): did not display any apoptosis activity
- apoptosis activity of tissue homogenate (HT-29 cancer cells; jaw): did not display any apoptosis activity
- apoptosis activity of tissue homogenate (HT-29 cancer cells; lung): did not display any apoptosis activity
- apoptosis activity of tissue homogenate (HT-29 cancer cells; pancreas): contained apoptosis activity
- reduction of brain P38 MAPK (P38 MAPK): 61%
- increase of activity of respiratory chain I (respiratory chain I [2]): 21%
- inhibition of respiratory chain III (respiratory chain III [3]): 42%
- increase of brain ATP [4]: 89.9% and 89.8%
- amount of glutamate and alpha-ketoglutarate (glutaminase): lower amount
- glutaminase activity in the cell lysate (glutaminase): significantly lower glutaminase activity
- half-life [5]: 480 min
- reduction of mean tumor size ([6]; high dose 1.0 mg per mouse): 38.0%
- reduction of mean tumor size ([6]; low dose 0.5 mg per mouse): 28.1%
- time at which saliva-induced apoptotic activity peaked (HT-29 colon cancer cells; 150 mg oral, dry solid form with arginine): 12 h
- time at which saliva-induced apoptotic activity peaked (HT-29 colon cancer cells; 200 mg oral, liquid form, undialyzed): 9 hours post-ingestion
- effect of saliva sample on HT-29 cancer cells (HT-29 colon cancer cells; saliva 4 hours after ingestion, 36 hours incubation): very little effect
- effect of saliva sample on HT-29 cancer cells (HT-29 colon cancer cells; saliva after 10-hour ingestion, 36 hours incubation): clear apoptosis activity
- effect of saliva sample on HT-29 cancer cells (HT-29 colon cancer cells; saliva collected 4-hours post-ingestion, 14- and 24-hour incubation, 200 mg liquid): little effect
- effect of saliva sample on HT-29 cancer cells (HT-29 colon cancer cells; saliva collected 10-hours post-ingestion, 14-hour and 24-hour incubations, 200 mg liquid): cell rounded up, cell shrinkage, and membrane blebbing
- inhibition of respiratory chain I (respiratory chain I [7]): 70.9%
- inhibition of respiratory chain III (respiratory chain III [8]): 71.2%
